Reference: patent US6376518B1, “Acyl derivatives of 4-demethylpenclomedine, use thereof and preparation thereof” (Southern Research Institute, priority 1999, dated 2002)
Read-outs that look alike come from different tables or passages of the source.

Legend:
human MX-1 mammary tumor [1] = assay: In vivo antitumor activity vs s.c.-implanted human MX-1 mammary tumor xenograft in athymic mice; settings: sc MX-1, Days 12-16
human MX-1 mammary tumor [2] = assay: In vivo antitumor activity vs i.c.-implanted human MX-1 mammary tumor xenograft in athymic mice; settings: ic MX-1, Days 1-5
P388/0 leukemia = settings: P388/0, Q1D × 1 (1); for MEDIAN DAY OF DEATH: dying mice only
P388/L-PAM leukemia = settings: P388/L-PAM, Q1D × 1 (1); for MEDIAN DAY OF DEATH: dying mice only
P388/CPA leukemia = assay: Antitumor activity against IP-implanted P388/CPA leukemia in mice; type: in vivo, murine; settings: P388/CPA, Q1D × 1 (1); for MEDIAN DAY OF DEATH: dying mice only

SMILES: COc1nc(C(Cl)(Cl)Cl)c(Cl)c(OC(=O)c2ccncc2)c1Cl [DM-IN-PEN]
- Dose (mg/kg) with observed lethality level (human MX-1 mammary tumor [1]; IP 90 mg/kg/dose): 90 (LD20)
- Tumor-Free-Surv/Total (human MX-1 mammary tumor [1]; IP 90 mg/kg/dose): 3/5

SMILES: C=CC(=O)Oc1c(Cl)c(OC)nc(C(Cl)(Cl)Cl)c1Cl [DM-AC-PEN]
- T-C (human MX-1 mammary tumor [1]; IP 60 mg/kg/dose): 30.0 days
- Tumor-Free-Surv/Total (human MX-1 mammary tumor [1]; IP 60 mg/kg/dose): 1/5
- Median % ILS (dying mice only) (human MX-1 mammary tumor [2]; IP 60 mg/kg/dose): +55%

SMILES: COc1nc(C(Cl)(Cl)Cl)c(Cl)c(OC(=O)C(Cl)Cl)c1Cl [DM-DCA-PEN]
- Tumor-Free-Surv/Total (human MX-1 mammary tumor [1]; IP 135 mg/kg/dose): 2/5

SMILES: COc1nc(C(Cl)(Cl)Cl)c(Cl)c(OC(=O)COC(C)=O)c1Cl [DM-AA-PEN]
- Median % ILS (dying mice only) (human MX-1 mammary tumor [2]; IP 135 mg/kg/dose): +67%
- Tumor-Free-Surv/Total (human MX-1 mammary tumor [2]; IP 135 mg/kg/dose): 0/5
- Tumor-Free-Surv/Total (human MX-1 mammary tumor [2]; oral (gavage) 135 mg/kg/dose): 2/5

SMILES: COc1nc(C(Cl)(Cl)Cl)c(Cl)c(OC(=O)CBr)c1Cl [DM-BA-PEN]
- T-C (human MX-1 mammary tumor [1]; IP 135 mg/kg/dose): >41.0 days
- Tumor-Free-Surv/Total (human MX-1 mammary tumor [1]; IP 135 mg/kg/dose): 2/5

SMILES: N[C@@H](Cc1ccc(N(CCCl)CCCl)cc1)C(=O)O [L-PAM (melphalan), melphalan]
- 50-DAY SURV/TOTAL (P388/0 leukemia; IP 15.0 mg/kg/dose): 6/6
- 50-DAY SURV/TOTAL (P388/0 leukemia; IP 20.0 mg/kg/dose): 6/6
- % ILS (P388/0 leukemia; IP 20.0 mg/kg/dose): +209%
- APPROX. NET LOG10 CHANGE IN TUMOR BURDEN AT END OF Rx (P388/0 leukemia; IP 20.0 mg/kg/dose): ca −8.8
- MEDIAN DAY OF DEATH (P388/0 leukemia; IP 20.0 mg/kg/dose): 34.0
- 50-DAY SURV/TOTAL (P388/L-PAM leukemia; IP 15.0 mg/kg/dose): 0/6
- % ILS (P388/L-PAM leukemia; IP 15.0 mg/kg/dose): +14%
- APPROX. NET LOG10 CHANGE IN TUMOR BURDEN AT END OF Rx (P388/L-PAM leukemia; IP 15.0 mg/kg/dose): −1.8
- MEDIAN DAY OF DEATH (P388/L-PAM leukemia; IP 15.0 mg/kg/dose): 18.0
- 50-DAY SURV/TOTAL (P388/L-PAM leukemia; IP 20.0 mg/kg/dose): 0/6
- % ILS (P388/L-PAM leukemia; IP 20.0 mg/kg/dose): +14%
- APPROX. NET LOG10 CHANGE IN TUMOR BURDEN AT END OF Rx (P388/L-PAM leukemia; IP 20.0 mg/kg/dose): −1.8
- MEDIAN DAY OF DEATH (P388/L-PAM leukemia; IP 20.0 mg/kg/dose): 18.0

SMILES: COc1nc(C(Cl)(Cl)Cl)c(Cl)c(OC(=O)c2ccc([N+](=O)[O-])o2)c1Cl [DM-NF-PEN]
- Tumor-Free-Surv/Total (human MX-1 mammary tumor [1]; IP 90 mg/kg/dose): 4/5
- Median % ILS (dying mice only) (human MX-1 mammary tumor [2]; IP 135 mg/kg/dose): +59%

SMILES: COc1nc(C(Cl)(Cl)Cl)c(Cl)c(OC(=O)c2ccc(CCl)cc2)c1Cl [DM-CMB-PEN]
- Median % ILS (dying mice only) (human MX-1 mammary tumor [2]; IP 90 mg/kg/dose): +73%
- Tumor-Free-Surv/Total (human MX-1 mammary tumor [2]; IP 90 mg/kg/dose): 0/5

SMILES: COc1nc(C(Cl)(Cl)Cl)c(Cl)c(OC(=O)c2c(Cl)cc(Cl)cc2Cl)c1Cl [DM-TCB-PEN]
- Median % ILS (dying mice only) (human MX-1 mammary tumor [2]; IP 135 mg/kg/dose): +92%
- Tumor-Free-Surv/Total (human MX-1 mammary tumor [2]; IP 135 mg/kg/dose): 1/5

SMILES: O=P1(N(CCCl)CCCl)NCCCO1 (stereo not drawn) [CPA (cyclophosphamide), cyclophosphamide]
- 50-DAY SURV/TOTAL (P388/CPA leukemia; IP 175.0 mg/kg/dose): 0/6
- % ILS (P388/CPA leukemia; IP 175.0 mg/kg/dose): +9%
- APPROX. NET LOG10 CHANGE IN TUMOR BURDEN AT END OF Rx (P388/CPA leukemia; IP 175.0 mg/kg/dose): −0.6
- MEDIAN DAY OF DEATH (P388/CPA leukemia; IP 175.0 mg/kg/dose): 12.0
- 50-DAY SURV/TOTAL (P388/CPA leukemia; IP 265.0 mg/kg/dose): 0/6
- % ILS (P388/CPA leukemia; IP 265.0 mg/kg/dose): +27%
- APPROX. NET LOG10 CHANGE IN TUMOR BURDEN AT END OF Rx (P388/CPA leukemia; IP 265.0 mg/kg/dose): −1.7
- MEDIAN DAY OF DEATH (P388/CPA leukemia; IP 265.0 mg/kg/dose): 14.0
- 50-DAY SURV/TOTAL (P388/0 leukemia; IP 175.0 mg/kg/dose): 1/6
- APPROX. NET LOG10 CHANGE IN TUMOR BURDEN AT END OF Rx (P388/0 leukemia; IP 175.0 mg/kg/dose): ca −8.8
- MEDIAN DAY OF DEATH (P388/0 leukemia; IP 175.0 mg/kg/dose): 30.0
- 50-DAY SURV/TOTAL (P388/0 leukemia; IP 265.0 mg/kg/dose): 6/6
